Tests used:
Assay type in all cases: biochemical
Conditions in all cases: Adjusted for Plasma Protein Binding
MMP-14 = MMP-14 (Homo sapiens, UniProt P50281); experiment: Concentration for 50% enzyme inhibition, MMP-14
MMP-2 = biological target: T1, MMP-2 (Homo sapiens, UniProt P08253); experiment: Concentration for 50% enzyme inhibition, MMP-2
T1 sequence (P08253 110-660): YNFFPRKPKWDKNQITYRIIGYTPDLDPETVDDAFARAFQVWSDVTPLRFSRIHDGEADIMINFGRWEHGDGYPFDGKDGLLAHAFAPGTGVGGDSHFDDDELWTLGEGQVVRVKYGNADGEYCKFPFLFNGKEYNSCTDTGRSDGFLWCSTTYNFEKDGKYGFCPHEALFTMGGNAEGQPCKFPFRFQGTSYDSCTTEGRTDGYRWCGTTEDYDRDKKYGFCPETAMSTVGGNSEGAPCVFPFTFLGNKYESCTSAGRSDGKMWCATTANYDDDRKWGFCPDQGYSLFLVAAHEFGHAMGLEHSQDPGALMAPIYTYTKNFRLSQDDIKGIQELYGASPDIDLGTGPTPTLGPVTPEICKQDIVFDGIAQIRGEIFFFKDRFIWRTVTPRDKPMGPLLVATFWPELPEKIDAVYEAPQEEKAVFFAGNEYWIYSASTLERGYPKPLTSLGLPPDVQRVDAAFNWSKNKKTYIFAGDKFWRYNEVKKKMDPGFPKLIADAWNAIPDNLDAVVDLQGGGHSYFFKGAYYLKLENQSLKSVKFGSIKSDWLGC

MMP-9 = MMP-9 (Homo sapiens, UniProt P14780); experiment: Concentration for 50% enzyme inhibition, MMP-9
Sequence of MMP-9 (P14780 94-707, species assumed): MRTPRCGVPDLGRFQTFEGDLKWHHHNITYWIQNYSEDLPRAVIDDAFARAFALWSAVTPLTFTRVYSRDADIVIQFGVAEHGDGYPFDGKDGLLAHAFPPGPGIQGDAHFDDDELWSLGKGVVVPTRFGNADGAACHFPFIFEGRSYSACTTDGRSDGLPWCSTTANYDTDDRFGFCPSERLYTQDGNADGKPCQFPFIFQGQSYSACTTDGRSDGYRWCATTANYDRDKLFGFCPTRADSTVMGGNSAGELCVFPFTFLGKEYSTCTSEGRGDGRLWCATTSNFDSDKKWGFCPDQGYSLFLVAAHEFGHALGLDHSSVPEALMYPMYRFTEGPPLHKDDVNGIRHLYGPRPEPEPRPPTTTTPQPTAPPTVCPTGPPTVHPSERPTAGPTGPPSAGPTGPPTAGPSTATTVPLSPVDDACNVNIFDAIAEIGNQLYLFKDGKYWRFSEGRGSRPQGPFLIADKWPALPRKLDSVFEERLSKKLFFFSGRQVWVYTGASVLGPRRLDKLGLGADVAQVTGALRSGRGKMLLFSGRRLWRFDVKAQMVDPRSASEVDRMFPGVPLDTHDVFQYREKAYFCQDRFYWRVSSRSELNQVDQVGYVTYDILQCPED
Text: (§1) The solubility range to achieve efficacious doses without adverse effects for a range of protease inhibitors is shown in Table 1.

MMP-3 = MMP-3 (Homo sapiens, UniProt P08254); experiment: Concentration for 50% enzyme inhibition, MMP-3
Sequence of MMP-3 (P08254 100-477, species assumed): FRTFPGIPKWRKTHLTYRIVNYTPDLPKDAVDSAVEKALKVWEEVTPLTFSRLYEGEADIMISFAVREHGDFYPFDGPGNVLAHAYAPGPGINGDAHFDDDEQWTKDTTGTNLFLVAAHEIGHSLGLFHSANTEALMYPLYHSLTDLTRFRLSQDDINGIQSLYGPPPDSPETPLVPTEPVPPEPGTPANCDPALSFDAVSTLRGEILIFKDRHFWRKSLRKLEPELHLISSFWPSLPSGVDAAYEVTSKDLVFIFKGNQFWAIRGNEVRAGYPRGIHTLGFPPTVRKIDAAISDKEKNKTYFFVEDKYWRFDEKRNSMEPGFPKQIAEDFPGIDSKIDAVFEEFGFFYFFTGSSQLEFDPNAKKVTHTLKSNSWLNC

uPA = uPA (Homo sapiens, UniProt P00749); experiment: Concentration for 50% enzyme inhibition, uPA
TPA = TPA (Homo sapiens, UniProt P00750); experiment: Concentration for 50% enzyme inhibition, TPA
Sequence of TPA (P00750 36-562, species assumed): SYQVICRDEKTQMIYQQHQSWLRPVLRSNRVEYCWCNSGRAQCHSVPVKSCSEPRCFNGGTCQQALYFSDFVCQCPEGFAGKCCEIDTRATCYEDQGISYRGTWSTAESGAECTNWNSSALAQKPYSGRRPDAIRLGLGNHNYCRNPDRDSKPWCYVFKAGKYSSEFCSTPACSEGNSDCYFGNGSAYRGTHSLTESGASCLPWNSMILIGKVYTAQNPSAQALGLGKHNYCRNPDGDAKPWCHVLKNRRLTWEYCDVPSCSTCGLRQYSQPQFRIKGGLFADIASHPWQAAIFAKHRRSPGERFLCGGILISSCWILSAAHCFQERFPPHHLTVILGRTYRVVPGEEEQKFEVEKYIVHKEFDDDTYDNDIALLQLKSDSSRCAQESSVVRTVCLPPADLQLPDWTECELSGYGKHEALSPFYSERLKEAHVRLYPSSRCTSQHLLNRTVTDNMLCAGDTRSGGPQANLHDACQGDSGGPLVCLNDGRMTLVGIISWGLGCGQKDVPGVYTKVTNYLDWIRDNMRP
Text: as §1

Plasmin = Plasmin (Homo sapiens, UniProt P00747); experiment: Concentration for 50% enzyme inhibition, Plasmin
Sequence of Plasmin (P00747 581-810 limits assumed, species assumed): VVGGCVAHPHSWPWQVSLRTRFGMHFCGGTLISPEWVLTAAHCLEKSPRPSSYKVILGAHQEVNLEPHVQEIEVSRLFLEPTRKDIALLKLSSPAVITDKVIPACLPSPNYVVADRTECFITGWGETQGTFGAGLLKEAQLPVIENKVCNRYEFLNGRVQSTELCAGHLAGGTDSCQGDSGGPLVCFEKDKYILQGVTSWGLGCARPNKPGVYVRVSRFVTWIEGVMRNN
Sequence of Plasmin (P00747 97-580 partner limits assumed, species assumed): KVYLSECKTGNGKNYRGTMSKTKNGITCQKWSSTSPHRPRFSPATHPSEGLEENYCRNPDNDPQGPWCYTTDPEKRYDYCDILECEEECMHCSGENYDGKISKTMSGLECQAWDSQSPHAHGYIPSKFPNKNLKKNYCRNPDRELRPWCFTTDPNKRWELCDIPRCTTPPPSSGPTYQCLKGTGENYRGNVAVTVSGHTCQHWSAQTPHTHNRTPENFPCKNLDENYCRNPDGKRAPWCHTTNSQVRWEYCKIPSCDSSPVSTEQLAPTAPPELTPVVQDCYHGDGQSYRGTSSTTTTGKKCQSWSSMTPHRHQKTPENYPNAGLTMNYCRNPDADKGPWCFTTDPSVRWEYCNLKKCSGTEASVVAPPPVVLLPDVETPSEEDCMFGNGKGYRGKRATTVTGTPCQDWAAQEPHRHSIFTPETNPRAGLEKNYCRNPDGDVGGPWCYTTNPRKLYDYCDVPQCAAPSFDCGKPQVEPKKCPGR
Text: as §1

Row | Structure (SMILES) | IC50 (MMP-14) [mM] | IC50 (MMP-2) [mM] | IC50 (MMP-9) [mM] | IC50 (MMP-3) [mM] | IC50 (uPA) [mM] | IC50 (TPA) [mM] | IC50 (Plasmin) [mM]
1 | COC[C@@H](NC(=O)[C@@H](NC(=O)[C@H](CCCc1ccc(-c2ccccc2)c(C)c1)CC(=O)O)C(C)(C)C)c1ccccc1 [A, (3R)-3-({[(1S)-2,2-Dimethyl-1-({[(1S)-2-methoxy-1-phenylethyl]amino}carbonyl)-propyl]amino}carbonyl)-6-[(3-methyl-4-phenyl)phenyl]hexanoic acid] | 35.6 | 27.2 | 16.6 | 0.0175 | – | – | –
2 | NC(N)=Nc1ncc(Cl)c2ccc(-c3cccc(C(=O)O)c3)cc12 [inhibitor X, 3-(4-Chloro-1-guanidino-7-isoquinolyl)benzoic acid] | – | – | – | – | 0.0117 | > 33.2 | 33.2

Source: patent US20030099693A1, “Wafer” (priority 2001, published 2003)
